Data published in US20230149419A1, “COMPOSITION FOR PREVENTING OR TREATING NEUROINFLAMMATORY DISEASES, COMPRISING CHLORPROMAZINE” (GliaCellTech Inc., priority 2020, published 2023).

Experiments:
[1] = system: primary microglia from wild-type (WT) mice; assay: fAβ42-induced cytokine secretion in primary microglia (ELISA), wild-type; format: cell-based, mouse; conditions: 4 μM fAβ42, 0.5 μM chlorpromazine (Group 24)
Procedure: (§1) Primary microglia were obtained from wild-type mice and Psen2^N141I/+ mice with Alzheimer's disease. Specifically, brains were excised from neonatal mice 1 to 3 days old and cells were obtained therefrom. The cells were cultured in Dulbecco's modified Eagle's medium (DMEM, Corning) supplemented with 10% heat-inactivated fetal bovine serum (HI-FBS, Hyclone) and 1% penicillin-streptomycin (Hyclone). Primary microglia were isolated in vitro by tapping after 12 days of culturing. Purity of primary microglia was estimated by immunostaining with an antibody against Iba-1, which is a microglial marker.
(§2) Specifically, FITC-conjugated amyloid beta 1-42 was prepared according to the follow reference (Cho, M.-H. et al. “Autophagy in microglia degrades extracellular β-amyloid fibrils and regulates the NLRP3 inflammasome.” Autophagy 10, 1761-1775 (2014)).
(§3) The primary cultures of microglia prepared in Example 5-1 from the Psen2 mutation (KI/+) mouse model of Alzheimer's disease and the wild-type (WT) mice were directly treated with 4 μM of the fibrilized amyloid beta 1-42 (fAβ42), followed by incubation with or without 0.5 μM chlorpromazine.

[2] = system: primary microglia from wild-type mice; assay: IL-1β secretion after LPS and inflammasome activation (nigericin/ATP), wild-type microglia; format: cell-based, mouse; conditions: chlorpromazine 0.5 μM 30 min, LPS 1 μg/mL 3 h
Procedure: as §1
IL-1β is a cytokine released from an activated inflammasome complex in microglia. For secretion of the cytokine, additional treatment with a drug for inducing activation of the inflammasome complex is necessary following LPS-induced inflammation. […] Application of the test groups thus obtained could divide groups 5 to 8 of Example 5-2 into 10 subgroups according to treatment with nigericin and ATP.

[3] = system: Nr1d1 mRNA in primary microglia from wild-type mice; assay: Nr1d1 mRNA expression in primary microglia (qRT-PCR), wild-type; format: cell-based, mouse
Procedure: Effects were analyzed in the experimental group not treated with chlorpromazine on the obtained microglia and the experimental group treated with chlorpromazine at a dose of 0.5 μM.

[4] = system: primary microglia from Psen2^N141I/+ mice with Alzheimer's disease; assay: LPS-induced inflammatory cytokine secretion in primary microglia (ELISA), Psen2 mutation; format: cell-based, mouse
Procedure: as §1
(§4) In this regard, the primary microglia were preincubated with or without 0.5 μM chlorpromazine for 30 min before LPS treatment. Anti-inflammatory effects were compared and analyzed between the test groups.

[5] = system: REV-ERBα protein in primary microglia from wild-type mice; assay: REV-ERBα protein expression in primary microglia (western blotting), wild-type; format: cell-based, mouse
Procedure: Effects were analyzed in the experimental group not treated with chlorpromazine on the obtained microglia and the experimental group treated with chlorpromazine at a dose of 0.5 μM. For analysis of REV-ERBα protein expression levels, western blotting was carried out. Specifically, primary microglia were lysed in a 1% Triton X-100 lysis buffer (1% Triton X-100, 250 mM sucrose, 1 mM EDTA, 1 mM phenylmethylsulfonyl fluoride, and 50 mM NaCl in 20 mM Tris-HCl, pH 7.4) with 1×protease and phosphatase inhibitors (Thermo Fisher Scientific) and 0.1 M dithiothreitol (Sigma-Aldrich). The cell lysates were separated by sodium dodecyl sulfate-polyacrylamide gel electrophoresis and transferred to polyvinylidene fluoride membranes. The membranes were incubated with the appropriate primary antibodies, and bound antibodies were detected by species-specific, horseradish peroxidase-conjugated secondary antibodies. Chemiluminescence detection was performed to analyze the protein bands of interest.

[6] = system: primary microglia from Psen2 mutation (KI/+) mouse model of Alzheimer's disease; assay: fAβ42-induced cytokine secretion in primary microglia (ELISA), Psen2 mutation; format: cell-based
Procedure: as §1, §2, §3

[7] = system: primary microglia from Psen2^N141I/+ mice with Alzheimer's disease; assay: LPS-induced cytokine mRNA expression in primary microglia (qRT-PCR), Psen2 mutation; format: cell-based, mouse
Procedure: as §1, §4
The culture of each group was measured for microglial mRNA expression levels of the target cytokines by qRT-PCR (quantitative RT-PCR). Specifically, RNA was isolated from the microglia and cDNA was synthesized using an ImProm-II Reverse Transcriptase kit (Promega). PCR primers were commercially available (Cosmo Genetech). qRT-PCR was performed using Taq Polymerase (Invitrogen) and mouse cDNA-specific primers listed in Table 6, below. In addition, TOPreal™ qPCR 2×PreMIX (SYBR Green with low ROX) (Enzynomics) was used. Amplification (50 cycles) was performed for 50 cycles with all primers in a CFX96 Real-Time System (Bio-Rad). Actb was used as the reference genes for normalization.

wild-type mice = assay: Y-maze test, wild-type mice; format: in vivo, mouse; conditions: for Y-maze Alternation % / Y-maze No. of Arm entry: chlorpromazine 0.25 mg/kg i.p., mean±SEM
Procedure: Specifically, the Y-maze was used to evaluate spatial working memory. The assay was conducted in white plastic arms of a Y-shaped maze. A mouse was placed in the center of the maze and was allowed to freely explore the arms for 5 min. The experiment was recorded with EthoVision software (Noldus). The number of arm entries and the number of triads were analyzed to calculate the percentage of alternation by dividing the number of three consecutive arm entries (triads) by the number of possible triads×100 (total arm entries−2).
An examination was made to see whether LPS-induced inflammation causes memory decline and chlorpromazine reverses the LPS-induced inflammation in disease animal models. To analyze memory and behavior performance, the Y-maze test as in Example 4 was conducted.

[8] = WT microglia, no LPS, 0.5 μM chlorpromazine (Group 28), mean±SEM
[9] = KI/+ microglia, LPS 1 μg/mL 12 h, preincubated 0.5 μM chlorpromazine 30 min (Group 8)
[10] = Psen2 mutation microglia, groups 7 vs 8, chlorpromazine 0.5 μM, LPS
[11] = KI/+ microglia, 4 μM fAβ42, 0.5 μM chlorpromazine (Group 26)
[12] = KI/+ microglia, LPS 1 μg/mL 12 h, 0.5 μM chlorpromazine (Group 8)
[13] = wild-type/LPS(+)/CPZ(+) (Group 44), LPS 0.35 μg/kg
[14] = wild-type/LPS(−)/CPZ(+) (Group 42)

CN(C)CCCN1c2ccccc2Sc2ccc(Cl)cc21 [CPZ, 3-(2-chloro-10H-phenothiazin-10-yl)-N,N-dimethyl-propan-1-amine]
Secreted inflammatory cytokine CCL2 [1]: 1062.537 pg/mL | Secreted inflammatory cytokine CCL5 [1]: 1204.562 pg/mL | Secreted inflammatory cytokine CXCL1 [1]: 1237.646 pg/mL | Secreted inflammatory cytokine IL-6 [1]: 1164.200 pg/mL | Secreted inflammatory cytokine TNF-α [1]: 1218.952 pg/mL | IL-1β secreted ([2]; wild-type microglia (Group 15), Nig(+)/ATP(−), nigericin 10 μM 40 min): 857.639 pg/mL | IL-1β secreted ([2]; wild-type microglia (Group 17), Nig(−)/ATP(+), ATP 5 mM 40 min): 1251.571 pg/mL | Nr1d1 mRNA expression [3, 8]: 0.860 ± 0.040 fold | Nr1d1 mRNA expression level (in words) ([3]; wild-type microglia, chlorpromazine 0.5 μM): ineffective | Inflammatory cytokine secreted CCL2 [4, 9]: 734.064 pg/mL | Inflammatory cytokine secreted CCL5 [4, 9]: 804.394 pg/mL | Inflammatory cytokine secreted CXCL1 [4, 9]: 924.907 pg/mL | Inflammatory cytokine secreted IL-6 [4, 9]: 2724.458 pg/mL | Inflammatory cytokine secreted TNF-α [4, 9]: 1532.733 pg/mL | production of IL-6, CXCL1, CCL2, and CCL5 (in words) [4, 10]: decrease the production | production of TNF-α (in words) ([4]; across all the groups (WT and KI/+ microglia), chlorpromazine 0.5 μM, LPS): no impacts | REV-ERBα protein expression [5, 8]: 0.956 ± 0.096 fold | REV-ERBα protein expression level (in words) ([5]; wild-type microglia, group 28): no effect | Secreted inflammatory cytokine CCL2 [6, 11]: 1645.882 pg/mL | Secreted inflammatory cytokine CCL5 [6, 11]: 1818.188 pg/mL | Secreted inflammatory cytokine CXCL1 [6, 11]: 1528.621 pg/mL | Secreted inflammatory cytokine IL-6 [6, 11]: 1336.446 pg/mL | Secreted inflammatory cytokine TNF-α [6, 11]: 1352.738 pg/mL | anti-inflammatory effect after fAβ42 (in words) ([6]; microglia from Psen2 mutation mouse model (group 26), 0.5 μM chlorpromazine): exhibited an anti-inflammatory effect | levels of TNF-α after fAβ42 (in words) ([6]; microglia from wild-type mice and Psen2 mutation model): no impacts | Inflammatory cytokine expression Ccl2 (mRNA) [7, 12]: 0.670 fold | Inflammatory cytokine expression Ccl5 (mRNA) [7, 12]: 0.730 fold | Inflammatory cytokine expression Cxcl1 (mRNA) [7, 12]: 0.692 fold | Inflammatory cytokine expression Il-6 (mRNA) [7, 12]: 0.538 fold | Inflammatory cytokine expression Tnf (mRNA) [7, 12]: 1.020 fold | mRNA expression of IL-6, CXCL1, CCL2, and CCL5 (in words) [7, 10]: decrease the mRNA expression | mRNA level of TNF-α (in words) ([7]; across all the groups (WT and KI/+ microglia), LPS): no impacts | memory performance, arm alternation in Y-maze (in words) (wild-type mice; wild-type mice, chlorpromazine alone (group 42) or with LPS (group 44)): normal memory performance | Y-maze Alternation % (wild-type mice; [13]): 64.333 ± 3.175% | Y-maze No. of Arm entry (wild-type mice; [13]): 17.889 ± 1.136 | Y-maze Alternation % (wild-type mice; [14]): 66.667 ± 4.681% | Y-maze No. of Arm entry (wild-type mice; [14]): 20.167 ± 1.537
